Data published in US9215875B2 (priority 2008, dated 2015).
Read-outs that look alike come from different tables or passages of the source.

Assay: log P determination by HPLC on reversed-phase columns (C 18), acidic range pH 2.7
Type: physicochemical
Details: for logP: HPLC; for chromatographic logP: reversed-phase HPLC column (C 18)
[1] = pH 2.7, only value, or main isomer
[2] = pH 2.7, second-listed (minor) isomer of the isomer mixture
[3] = pH 2.7, HPLC, pH 2.7, only value, or main isomer, read-out: logP
[4] = pH 2.7, pH 2.7, preparation example, only value or main isomer, read-out: log P (pH2.7)
[5] = pH 2.7, HPLC, pH 2.7, second-listed (minor) isomer of the isomer mixture, read-out: logP
[6] = pH 2.7, pH 2.7, preparation example, minor isomer, read-out: log P (pH2.7)

| Structure (SMILES) | logP [1] | logP [2] | other results |
| --- | --- | --- | --- |
| O=C(Cc1cc(Cl)ccc1Cl)N1CCC(c2nc(C=NOC3CCCCC3)cs2)CC1 (mixture of isomers) [I-35] | 5.10 | 5.45 | – |
| CC(=NOC1CCCCC1)c1csc(C2CCN(C(=O)Cc3cc(Cl)ccc3Cl)CC2)n1 (mixture of isomers) [I-46] | 5.87 | 6.17 | – |
| Cc1cc(C(F)(F)F)nn1CC(=O)N1CCC(c2nc(C=NOCc3c(F)cccc3F)cs2)CC1 (mixture of isomers) [I-36] | 3.70 | 3.86 | – |
| CC(=NOCCCc1ccccc1)c1csc(C2CCN(C(=O)Cn3nc(C(F)(F)F)cc3C)CC2)n1 [I-21] | 4.66 | – | – |
| Cc1cc(C(F)(F)F)nn1CC(=O)N1CCC(c2nc(C=NN(C)Cc3ccccn3)cs2)CC1 [I-11] | 1.82 | – | – |
| CC(=NOCc1ccccc1)c1csc(C2CCN(C(=O)Cn3nc(C(F)(F)F)cc3C)CC2)n1 (mixture of isomers) [I-10] | 4.07 | 4.28 | – |
| Cc1cc(C(F)(F)F)nn1CC(=O)N1CCC(c2nc(C=NOCc3ccccc3)cs2)CC1 (mixture of isomers) [I-2] | 3.63 | 3.80 | – |
| CC(=NOc1ccccc1)c1csc(C2CCN(C(=O)Cn3nc(C(F)(F)F)cc3C)CC2)n1 (mixture of isomers) [I-4] | 4.23 | 4.46 | – |
| O=C(Cc1cc(Cl)ccc1Cl)N1CCC(c2nc(C=NOCc3c(F)cccc3F)cs2)CC1 (mixture of isomers) [I-38] | 4.36 | 4.60 | – |
| Cc1cc(C(F)(F)F)nn1CC(=O)N1CCC(c2nc(C=NOCc3ccccc3F)cs2)CC1 (mixture of isomers) [I-9] | 3.68 | 3.84 | – |
| Cc1cc(C(F)(F)F)nn1CC(=O)N1CCC(c2nc(C=NOCc3ccccc3Cl)cs2)CC1 [I-18] | 4.04 | – | – |
| Cc1ccccc1CON=Cc1csc(C2CCN(C(=O)Cn3nc(C(F)(F)F)cc3C)CC2)n1 (mixture of isomers) [I-6] | 3.96 | 4.12 | – |
| CC(=NOCc1c(F)cccc1F)c1csc(C2CCN(C(=O)Cn3nc(C(F)F)cc3C(F)F)CC2)n1 (mixture of isomers) [I-42] | 4.00 | 4.19 | – |
| CC(C)(C)c1cc(C(F)(F)C(F)(F)F)n(CC(=O)N2CCC(c3nc(C=NOCc4ccc(Cl)cc4)cs3)CC2)n1 [I-30] | 5.31 | – | – |
| CC(=NN1CCCCC1)c1csc(C2CCN(C(=O)Cn3nc(C(F)(F)F)cc3C)CC2)n1 [I-17, 2-[5-Methyl-3-(trifluoromethyl)-1H-pyrazol-1-yl]-1-(4-{4-[N-(piperidin-1-yl)ethanimidoyl]-1,3-thiazol-2-yl}piperidin-1-yl)ethanone] | – | – | chromatographic logP [3]: 3.69; chromatographic logP [4]: 3.69 |
| Cc1cc(C(F)(F)F)nn1CC(=O)N1CCC(c2nc(C=NN(Cc3ccccc3)c3ccccc3)cs2)CC1 [I-12] | 4.70 | – | – |
| O=C(Cn1nc(C(F)F)cc1C(F)F)N1CCC(c2nc(C=NOCc3ccc(Cl)cc3)cs2)CC1 [I-27] | 3.90 | – | – |
| Cc1cc(C(F)(F)F)nn1CC(=O)N1CCC(c2nc(C=NOc3ccccc3Br)cs2)CC1 [I-39] | 4.14 | – | – |
| O=C(Cn1nc(C(F)(F)F)cc1C(F)(F)F)N1CCC(c2nc(C=NOCc3ccc(Cl)cc3)cs2)CC1 [I-24] | 4.56 | – | – |
| CC(C)(C)c1cc(C(F)(F)F)nn1CC(=O)N1CCC(c2nc(C=NOCc3ccc(Cl)cc3)cs2)CC1 [I-29] | 4.75 | – | – |
| Cc1cc(C(F)(F)F)nn1CC(=O)N1CCC(c2nc(C=NOC3CCCCC3)cs2)CC1 (mixture of isomers) [I-33] | 4.26 | 4.48 | – |
| Cc1cc(C(F)(F)F)nn1CC(=O)N1CCC(c2nc(C=NOCc3ccc(Cl)cc3)cs2)CC1 (mixture of isomers) [I-7] | 4.04 | 4.23 | – |
| CCCCCCON=C(C)c1csc(C2CCN(C(=O)Cn3nc(C(F)(F)F)cc3C)CC2)n1 [I-19] | 5.13 | – | – |

| Structure (SMILES) | logP [1] | logP [2] | other results |
| --- | --- | --- | --- |
| O=C(Cc1cc(Cl)ccc1Cl)N1CCC(c2nc(C=NOc3ccccc3Br)cs2)CC1 [I-40] | 4.90 | – | – |
| Cc1cc(C(F)(F)F)nn1CC(=O)N1CCC(c2nc(C=NN(c3ccccc3)c3ccccc3)cs2)CC1 [I-13] | 4.77 | – | – |
| CCc1cc(CC)n(CC(=O)N2CCC(c3nc(C=NOCc4ccc(Cl)cc4)cs3)CC2)n1 [I-25] | 3.70 | – | – |
| CC(=NOC1CCCCC1)c1csc(C2CCN(C(=O)Cn3nc(C(F)(F)F)cc3C)CC2)n1 (mixture of isomers) [I-44] | 4.02 | 4.12 | – |
| Cc1cc(C(F)(F)F)nn1CC(=O)N1CCC(c2nc(C=NOc3ccccc3)cs2)CC1 [I-1, 2-(1-{[5-Methyl-3-(trifluoromethyl)-1H-pyrazol-1-yl]acetyl}piperidin-4-yl)-1,3-thiazole-4-carbaldehyde O-phenyl oxime] | – | – | chromatographic logP [3]: 3.74; chromatographic logP [5]: 3.94; chromatographic logP [6]: 3.94; chromatographic logP [4]: 3.74 |
| Cc1cc(C(F)(F)F)nn1CC(=O)N1CCC(c2nc(C=NN3CCCCC3)cs2)CC1 [I-16] | 3.00 | – | – |
| Cc1cc(C(F)(F)F)nn1CC(=O)N1CCC(c2nc(C=NOC(C)c3ccc(Cl)cc3)cs2)CC1 (mixture of isomers) [I-8] | 4.34 | 4.50 | – |
| CC(=NOC1CCCCC1)c1csc(C2CCN(C(=O)Cn3nc(C(F)F)cc3C(F)F)CC2)n1 (mixture of isomers) [I-45] | 4.69 | 4.88 | – |
| Cc1cc(C(F)(F)F)nn1CC(=O)N1CCC(c2nc(C=NOC(C)c3ccccc3)cs2)CC1 (mixture of isomers) [I-3] | 3.92 | 4.07 | – |
| Cc1cc(C(F)(F)F)nn1CC(=O)N1CCC(c2nc(C=NN(C)c3ccccc3)cs2)CC1 [I-15] | 3.83 | – | – |
| Cc1cc(C(F)(F)F)nn1CC(=O)N1CCC(c2nc(C=NN(C)c3ccc(C(F)(F)F)cn3)cs2)CC1 [I-14, 2-(1-{[5-Methyl-3-(trifluoromethyl)-1H-pyrazol-1-yl]acetyl}piperidin-4-yl)-1,3-thiazole-4-carbaldehyde methyl[5-(trifluoromethyl)pyridin-2-yl]hydrazone] | – | – | chromatographic logP [3]: 4.23; chromatographic logP [4]: 4.23 |
| CC(C)(C)c1cc(C(F)(F)C(F)(F)F)nn1CC(=O)N1CCC(c2nc(C=NOCc3ccc(Cl)cc3)cs2)CC1 [I-31] | 5.31 | – | – |
| CCc1cc(C(F)(F)F)nn1CC(=O)N1CCC(c2nc(C=NOCc3ccc(Cl)cc3)cs2)CC1 [I-26] | 4.30 | – | – |
| CC(=NOCc1c(F)cccc1F)c1csc(C2CCN(C(=O)Cn3nc(C(F)(F)F)cc3C)CC2)n1 (mixture of isomers) [I-41] | 4.11 | 4.32 | – |
| O=C(Cn1nc(C(F)F)cc1C(F)F)N1CCC(c2nc(C=NOC3CCCCC3)cs2)CC1 (mixture of isomers) [I-34] | 4.12 | 4.33 | – |
| CCCCCON=C(C)c1csc(C2CCN(C(=O)Cn3nc(C(F)(F)F)cc3C)CC2)n1 [I-20] | 4.71 | – | – |
| CC(=NOCc1c(F)cccc1F)c1csc(C2CCN(C(=O)Cc3cc(Cl)ccc3Cl)CC2)n1 (mixture of isomers) [I-43] | 4.91 | 5.16 | – |
| CC(C)(C)c1cc(C(F)(F)F)n(CC(=O)N2CCC(c3nc(C=NOCc4ccc(Cl)cc4)cs3)CC2)n1 [I-28] | 4.99 | – | – |
| CC(C)c1cc(C(F)(F)F)n(CC(=O)N2CCC(c3nc(C=NOCc4ccc(Cl)cc4)cs3)CC2)n1 [I-32] | 4.56 | – | – |
| CC(=NOC(C)c1ccccc1)c1csc(C2CCN(C(=O)Cn3nc(C(F)(F)F)cc3C)CC2)n1 (centres unmarked) [I-5, 2-[5-Methyl-3-(trifluoromethyl)-1H-pyrazol-1-yl]-1-(4-{4-[N-(1-phenylethoxy)ethanimidoyl]-1,3-thiazol-2-yl}piperidin-1-yl)ethanone] | – | – | chromatographic logP [3]: 4.38; chromatographic logP [5]: 4.54; chromatographic logP [6]: 4.54; chromatographic logP [4]: 4.38 |
| CC(=O)c1csc(C2CCN(C(=O)Cn3nc(C(F)(F)F)cc3C)CC2)n1 [IV-1, 1-[4-(4-Acetyl-1,3-thiazol-2-yl)piperidin-1-yl]-2-[5-methyl-3-(trifluoromethyl)-1H-pyrazol-1-yl]ethanone] | – | – | chromatographic logP [4]: 2.25 |
| CC(=NOCCCCc1ccccc1)c1csc(C2CCN(C(=O)Cn3nc(C(F)(F)F)cc3C)CC2)n1 [I-22] | 4.97 | – | – |
| O=C(Cn1nc(C(F)F)cc1C(F)F)N1CCC(c2nc(C=NOCc3c(F)cccc3F)cs2)CC1 (mixture of isomers) [I-37] | 3.58 | 3.74 | – |
